Assay [1] has as its system HRECs. The assay is described as follows: Intracellular ROS generation (H2DCFDA, confocal) in HRECs. It counts as cell-based, human. As to conditions: 10 ng/ml VEGF, inhibitors pretreated 30 min.
Method: Intracellular ROS generation was determined using 2′,7′-dichlorodihydrofluorescein diacetate (H2DCFDA, Molecular Probes, Eugene, Oreg.) staining as previously described. Cells were pretreated with inhibitors for 30 min and co-incubated with 10 ng/ml of VEGF and 10 μM H2DCFDA in low-serum media (phenol red-free) for 10 min. Labeled cells were immediately analyzed using confocal microscopy (Fluoview-300, Olympus). Single-cell fluorescence intensities were determined for 10 randomly selected cells per test. Intracellular ROS levels were determined by comparing average fluorescence intensities of treated cells with those of control cells (expressed as multiples thereof). […] Intracellular Ca^2+ and ROS levels were determined by confocal microscopy as described in Research Design and Methods. Results are expressed as mean±SD from three independent trials (***p<0.001).
The target in assay [2] is T1, TGase2 (Homo sapiens, UniProt P21980).
T1 sequence (P21980 1-687): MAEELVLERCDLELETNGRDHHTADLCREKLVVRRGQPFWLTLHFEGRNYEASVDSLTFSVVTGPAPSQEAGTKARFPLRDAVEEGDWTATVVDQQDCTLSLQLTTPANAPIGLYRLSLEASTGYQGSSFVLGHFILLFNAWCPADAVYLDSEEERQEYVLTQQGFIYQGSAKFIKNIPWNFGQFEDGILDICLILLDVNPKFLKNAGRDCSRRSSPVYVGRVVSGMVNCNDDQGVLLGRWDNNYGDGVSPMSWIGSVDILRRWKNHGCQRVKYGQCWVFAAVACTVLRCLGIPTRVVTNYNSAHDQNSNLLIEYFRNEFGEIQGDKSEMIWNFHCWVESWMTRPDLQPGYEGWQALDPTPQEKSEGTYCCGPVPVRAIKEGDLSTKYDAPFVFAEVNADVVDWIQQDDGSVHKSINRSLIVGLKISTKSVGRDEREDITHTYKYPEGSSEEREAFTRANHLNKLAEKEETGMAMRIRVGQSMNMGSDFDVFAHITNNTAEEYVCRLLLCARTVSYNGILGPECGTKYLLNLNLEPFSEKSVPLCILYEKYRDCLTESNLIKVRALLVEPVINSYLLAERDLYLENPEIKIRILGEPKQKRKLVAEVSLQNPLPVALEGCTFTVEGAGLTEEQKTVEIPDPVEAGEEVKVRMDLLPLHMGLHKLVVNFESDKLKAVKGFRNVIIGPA
The assay is described as follows: In-situ TGase activity by confocal microscopy in VEGF-treated HRECs. It counts as cell-based. More on the design: endogenous in cells; host or cells: human retinal endothelial cells (HRECs). The conditions noted are these: 10 ng/ml VEGF 2 hrs, 50 μM cystamine, 20 μM MDC, 5 μM BAPTA-AM, 1 mM NAC, 0.5 μM Trolox, p<0.001. The procedure:
HUVEC isolation was done by our own supply and Human retinal endothelial cells (HRECs) were purchased from the Applied Cell Biology Research Institute (Cell Systems, Kirkland, Wash.). Both respectively were grown on 2% gelatin-coated plates in a M199 medium supplemented with 20% fetal bovine serum (FBS), 3 ng/ml basic fibroblastic growth factor, 5 units/ml heparin, 100 units/ml penicillin, and 100 μg/ml streptomycin. For experiments, cells were incubated for 6 hrs in a low-serum medium supplemented with 1% FBS and antibiotics.
In-situ Tgase transamidating activity was determined via confocal microscopic assay according to a previously known procedure. In brief, cells were incubated with 1 mM 5-(biotinamido)pentylamine (BAPA) for 1 hr at 37° C., fixed with 3.7% formaldehyde in PBS for 30 min, and permeabilized with 0.2% Triton X-100 in PBS for 30 min. After incubation with a blocking solution of 2% BSA in 20 mM Tris (pH 7.6), 138 mM NaCl, and 0.1% Tween 20 for 30 min, cells were treated with Cy3-conjugated streptavidin (1:200, v/v) in the blocking solution for 1 hr. Single-cell fluorescence intensities of stained cells were determined using confocal microscopy for 10 randomly selected cells per test. TGase activities were determined by comparing average fluorescence intensities of treated cells with those of control cells (expressed as multiples thereof).
HRECs were transfected with human TGase2-specific siRNA as described previously. In brief, cells were transfected with various concentrations of human TGase2-siRNA or 100 nM control siRNA (Dharmacon, Lafayette, Colo.) using siLentFect lipid reagent (Bio-Rad Laboratories, Hercules, Calif.) according to the manufacturer's instructions. Six hours after transfection with the indicated concentrations, the medium was replaced with a fresh culture medium and the transfected cells were further incubated for 24 hrs.
A detailed description of FIGS. 1A-1F are given below. […] (A, B) HRECs were incubated with 10 ng/ml VEGF for the indicated times (A) or for 2 hrs (B) in the presence of TGase inhibitors (50 μM cystamine and 20 μM MDC), 5 μM Ca^2+ chelator BAPTA-AM, or ROS scavengers (1 mM NAC or 0.5 μM Trolox). In-situ TGase activity was determined by confocal microscopy as described in Research Design and Methods (A: Time course changes in VEGF-induced transglutaminase activation; and B: Effects of various inhibitors on VEGF-induced transglutaminase activation). (C,D) HRECs were transfected with the indicated concentrations (C) or 100 nM (D) of human TGase2-specific siRNA (TGase2 siRNA) or 100 nM control (Ctrl) siRNA. Endothelial cells were treated with 10 ng/ml VEGF and subjected to confocal microscopic determination of in-situ TGase activity (C: Dose-dependent inhibition of TGase2 expression by TGase2 siRNA, TGase2 expression being analyzed by Western blot; and D: TGase2 siRNA prevention of VEGF-induced transglutaminase activation). FIGS. 1E and 1F show the effects of various inhibitors on the elevation of intracellular Ca^2+ (E) and ROS (F). Intracellular Ca^2+ and ROS levels were determined by confocal microscopy as described in Research Design and Methods. Results are expressed as mean±SD from three independent trials (***p<0.001).

Assay [3] has as its system HRECs. The assay is described as follows: Intracellular Ca2+ levels (Fluo4-AM, confocal) in HRECs. It counts as cell-based, human. The conditions noted are these: 10 ng/ml VEGF, inhibitors 30 min.
Method: Cells on coverslips were co-incubated with 2 μM Fluo4-AM and various inhibitors for 30 min at 37° C. Coverslips were scanned every 10 sec in the presence of 10 ng/ml VEGF using a confocal microscope (FV-300, Olympus Tokyo, Japan). Single-cell fluorescence intensities of peaks were determined for 10 randomly selected cells per trial.
Assay [4] concerns the target T2, TGase2 (Mus musculus, UniProt P21981).
T2 construct: from tissue; host or cells: retina of streptozotocin-diabetic C57BL/6 mice
T2 sequence (P21981 1-686): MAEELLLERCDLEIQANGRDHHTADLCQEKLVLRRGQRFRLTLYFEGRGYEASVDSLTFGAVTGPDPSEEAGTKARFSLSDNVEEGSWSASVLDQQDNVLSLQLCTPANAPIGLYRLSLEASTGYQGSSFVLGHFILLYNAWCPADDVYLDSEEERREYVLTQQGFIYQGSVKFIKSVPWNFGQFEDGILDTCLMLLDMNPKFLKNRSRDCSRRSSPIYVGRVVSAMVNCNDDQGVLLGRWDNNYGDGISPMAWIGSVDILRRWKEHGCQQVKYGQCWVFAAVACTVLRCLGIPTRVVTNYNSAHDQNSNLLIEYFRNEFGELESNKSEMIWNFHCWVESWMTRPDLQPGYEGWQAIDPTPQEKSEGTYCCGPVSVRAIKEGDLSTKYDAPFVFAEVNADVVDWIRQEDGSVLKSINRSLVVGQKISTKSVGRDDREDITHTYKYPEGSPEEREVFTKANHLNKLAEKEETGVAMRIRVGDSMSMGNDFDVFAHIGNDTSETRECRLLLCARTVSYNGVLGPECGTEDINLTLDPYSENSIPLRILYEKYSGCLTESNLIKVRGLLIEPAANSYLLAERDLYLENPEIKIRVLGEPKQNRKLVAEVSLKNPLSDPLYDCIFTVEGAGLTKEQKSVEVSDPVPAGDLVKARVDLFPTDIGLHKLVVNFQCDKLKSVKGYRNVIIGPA
The assay is described as follows: In-vivo TGase activity in retina of streptozotocin-diabetic mice. As to conditions: diabetic mice, intravitreal 2 μl: 50 mM cystamine, 20 mM MDC, 1 μM C-peptide, 2 μM Trolox, 500 mM NAC; after 24 hrs; n=8. As for the experimental part:
Two weeks after streptozotocin injection, diabetic mice were intravitreally injected with 2 μl of TGase inhibitors (50 mM cystamine or 20 mM MDC), 1 μM C-peptide (American Peptide Company, Sunnyvale, Calif.), ROS scavengers (2 μM Trolox or 500 mM NAC), or 65 μM mouse TG2-specific siRNA (Dharmacon, Lafayette, Colo.) into one eye and an equal volume of PBS or mouse control siRNA (Dharmacon, Lafayette, Colo.) into the contralateral eye. Non-diabetic mice were also intravitreally injected with 2 μl of PBS or mouse control siRNA into the eyes. After 24 hrs for inhibitors or C-peptide or 48 hrs for mouse TGase2 siRNA, mice were subjected to measurement of in-vivo TGase activity and vascular leakage from the retina.
In vivo Tgase transamidating activity was determined in mouse retina using confocal microscopy (FIG. 5A). 24 hrs after intravitreal injection of TGase2 inhibitors and C-peptide or 48 h after the injection of mouse TGase2-specific siRNA, mice were deeply anaesthetized using 2.5% avertin and 48 μl of 100 mM BAPA was injected into the left ventricle. BAPA was allowed to circulate for 10 min and mice were sacrificed by cervical dislocation. Eyes were then enucleated and immediately fixed with 4% paraformaldehyde for 45 min. Retinas were dissected in the Maltese cross-configuration and permeabilized with 0.2% Triton X-100 in PBS for 30 min at RT. After incubation with the blocking solution for 30 min, retinas were treated with FITC-conjugated streptavidin (1:200, v/v) in the blocking solution for 1 hr at RT. The superficial vessels of stained retinas (n=8 per group) were observed using confocal microscopy and fluorescence intensities were analyzed using Fluoview software (FV-300). In-vivo TGase activities were quantitatively determined using fluorescence intensities in the retinas of normal and diabetic mice.
Six-week-old male C57BL/6 mice were obtained from KOATECH (Pyeongtaek, Korea). TGase2^−/− mice (C57BL/6) were prepared by disrupting exons 5 and 6 of TGase2 by homologous recombination, as previously described. Diabetic mice were generated by a single intraperitoneal injection of streptozotocin (150 mg/kg body weight, Sigma) freshly prepared in 100 mM citrate buffer (pH 4.5) as previously described. Mice with non-fasting blood glucose levels greater than 19 mM, polyuria and glucosuria were considered diabetic. Experiments were performed in strict accordance with the guidelines of the Institutional Animal Care and Use Ethics Committee of Kangwon National University.
To validate the in-vitro findings, the present inventors further investigated the role of TGase2 in hyperglycemia-induced vascular leakage in the retina of diabetic mice. For this study, the present inventors designed an in-vivo TGase activity assay using confocal microscopy in mouse retina (FIG. 5A). In this assay, BAPA, which is a TGase2 pseudo substrate, was systemically delivered into the blood circulatory system by injection into the left ventricles of mice, and biotinylated proteins in the retinas were probed with FITC-conjugated streptavidin.
(A) A schematic diagram for determining TGase2 activity in mouse retina. (B,C) Streptozotocin-induced diabetic mice were intravitreally injected with 2 μl cystamine (diabetic+Cys), MDC (diabetic+MDC), C-peptide (diabetic+C-pep), Trolox (diabetic+Trolox) or NAC (diabetic+NAC) into one eye and an equal volume of PBS into the contralateral eye (diabetic). Non-diabetic mice were also intravitreally injected with 2 μl PBS into both eyes (normal). TGase2 activities in retinas were visualized by confocal microscopy and quantitatively determined as described in Research Design and Methods (n=8 per group). (B) Representative TGase activity images in the retinas. […] Scale bar, […]. (C) In-vivo TGase activities were quantified by measuring the fluorescence intensity in retinas (***p<0.001). […]

Assay [5] concerns HRECs. The assay is described as follows: Visualization of actin filaments (stress fiber formation) in HRECs. It counts as cell-based, human. The conditions noted are these: summary statement, conditions not given. As for the experimental part:
(§1) Actin filaments and VE-cadherin were visualized as previously described. For visualization of actin filaments, cells were treated with 10 ng/ml VEGF for 1 hr at 37° C., fixed with 3.7% formaldehyde, and permeabilized with 0.2% Triton X-100. […] For visualization of VE-cadherin, cells were preincubated with the TGase2 inhibitors for 30 min and treated with 10 ng/ml VEGF for 90 min at 37° C. Following fixation and permeabilization, cells were incubated overnight with a monoclonal anti-VE-cadherin antibody (1:200, Santa Cruz Biotechnology) at 4° C. Cells were then probed with an FITC-conjugated goat anti-mouse antibody (1:200, Sigma) and VE-cadherin was visualized using confocal microscopy. Adherens junctions are represented by histograms of VE-cadherin as indicated by dotted lines and were quantitatively analyzed using peak fluorescence intensities of the histograms at the single-cell level for 10 randomly selected cells per experiment.
(§2) (A-C) HRECs were preincubated with 50 μM cystamine (Cys) and 20 μM MDC for 30 min and treated with 10 ng/ml VEGF. Stress fibers and VE-cadherin were stained and visualized by confocal microscopy as described in Research Design and Methods (n=3) ((A) Representative images of stress fibers. Scale Bar, 30 μm. (B) Representative images of VE-cadherin. Scale Bar, 10 μm). Adherens junctions are represented by histograms of VE-cadherin as indicated by dotted lines. (C) Adherens junctions were quantitatively analyzed using the peak fluorescence intensities of the histograms at the single-cell level. The results are expressed as mean±SD from three independent trials. (D) In-vitro endothelial cell monolayer permeability assay. HRECs on inserts of Transwell® Permeable Supports were incubated with 50 μM cystamine and 20 μM MDC for 30 min and treated with 10 ng/mL VEGF for 90 min. The amount of FITC-dextran that diffused to the lower chamber was measured by a microplate spectrofluorometer (n=3) (**p<0.01).
(§3) HRECs were transfected with 100 nM human TGase2-specific siRNA (TGase2 siRNA) or 100 nM control (Ctrl) siRNA. Endothelial cells were treated with 10 ng/ml VEGF and subjected to the confocal microscopic visualization of stress fibers (A) and VE-cadherin (B), as described in Research Design and Methods (n=3). (A) TGase2 siRNA inhibition of VEGF-induced formation of stress fibers. Scale bar, 30 μm. (B) Representative images of VE-cadherin and adherens junctions represented by VE-cadherin histograms. Scale bar, 10 μm. (C) Adherens junctions were quantitatively analyzed using peak fluorescence intensities of the histograms at the single-cell level. Results are expressed as mean±SD from three independent experiments (***p<0.001).

The next assay has as its system VE-cadherin. The assay is described as follows: Visualization of VE-cadherin (adherens junction disruption) in HRECs. It counts as cell-based, human. As to conditions: summary statement, conditions not given. The procedure:
as §1, §2, §3

For the compound `CC(=O)OCOC(=O)CN(CC(=O)OCOC(C)=O)c1ccccc1OCCOc1ccccc1N(CC(=O)OCOC(C)=O)CC(=O)OCOC(C)=O` [BAPTA-AM], the “VEGF-induced intracellular ROS generation” value with HRECs [1] is “significantly inhibited”. The “VEGF-induced TGase activation (in-situ TGase activity)” value at TGase2 [2] is “inhibited”. For the same compound, the “VEGF-elevated intracellular Ca2+ levels” value in the assay with HRECs [3] was “inhibited”.

Turning to “C-peptide: 31-amino acid peptide, EAEDLQVGQVELGGGPGAGSLQPLALEGSLQ (SEQ ID NO. 2), co-secreted with insulin by pancreatic β cells (listed as Homo sapiens)”, in the assay with TGase2 [4], the “hyperglycemia-induced TGase2 activation in diabetic retina (in-vivo TGase activity)” value is reported as “blocked”. For the same compound, in the assay with HRECs [5], the “VEGF-induced stress fiber formation” value is “prevented”. In the assay with VE-cadherin, the “VEGF-induced VE-cadherin disruption” value is “prevented”.

Turning to `CC(=O)N[C@@H](CS)C(=O)O` [NAC, N-acetyl cysteine], at TGase2 [2], the “VEGF-induced TGase activation (in-situ TGase activity)” value is recorded as “inhibited”.

Take `NCCO` [ethanolamine]: in the assay on HRECs [5], the “VEGF-induced stress fiber formation” value is listed as “prevented”. Further, in the assay on VE-cadherin, the “VEGF-induced VE-cadherin disruption” value is “prevented”.

The values above are taken from US10155948B2, “Pharmaceutical composition for preventing or treating diabetic complications and screening method for preventive or therapeutic agent for diabetic complications” (KANGWON NATIONAL UNIVERSITY UNIVERSITY-INDUSTRY COOPERATION …, priority 2016, dated 2018).
